Assay results published in paper PMC12040169 (PLOS Biology, 2025).

experiment: in vitro; settings: human, hela cells, % viability

Going from `Cc1ccc(S(=O)(=O)Nc2ccc(N3CCCNCC3)cc2N(C)S(C)(=O)=O)cc1` [CBK000017C] to `Nc1cc(S(=O)(=O)Nc2ccc(C(F)(F)F)cc2)ccc1N1CCCNCC1` [CBK001518C], the viability at 28.5 h, 10 µM falls from 113% to 87.9%.

Going from `O=S(=O)(Nc1ccc(N2CCNCC2)nc1)c1ccc(F)cc1F` [CBK000022C] to `CCCCOc1ccc(S(=O)(=O)n2ccc3cc(N4CCNCC4)ccc32)cc1` [CBK001315C], the viability at 28.5 h, 10 µM falls from 110% to 37.9%.

Going from `CN(CCOc1ccccc1)c1nccnc1N1CCNCC1` [CBK000035F] to `O=[N+]([O-])c1ccc(OCCOc2nccnc2N2CCNCC2)c2ncccc12` [CBK000623C], the viability at 28.5 h, 10 µM falls from 109% to 94.9%.

Compared with `CC1CN(C(=O)OC(C)(C)C)CCN1` (stereo not shown) [CBK000069C], `CC(C)(C)OC(=O)N1CCC(Oc2cncc(Cl)n2)CC1` [CBK001762] is lower in viability at 28.5 h, 10 µM: 100% for the first, 98% for the second.

Going from `Oc1cccc2c1OCO2` [CBK000070] to `O=C1CCc2cccc(OCCO)c21` [CBK001442], the viability at 28.5 h, 10 µM rises from 85.8% to 92.7%.

First: CCOC(=O)Cc1csc(NS(=O)(=O)/C=C/c2ccccc2)n1 [CBK000072]
Second: CCOC(=O)Cc1csc(NS(=O)(=O)c2ccc(OC(F)(F)F)cc2)n1 [CBK000852]
The viability at 28.5 h, 10 µM of the first is lower: 101% for the first, 110% for the second.

Going from `c1ccc(-c2nc3cc4ccccc4cc3[nH]2)nc1` [CBK000130] to `O=S(=O)(c1ccc2ccccc2c1)c1cnns1` [CBK001887], the viability at 28.5 h, 10 µM rises from 82.5% to 97.7%.

First: Cc1oc(-c2ccccc2)nc1CCOc1ccc(NC(=O)c2ccc(Cl)cc2Cl)c(C(=O)O)c1 [CBK000168D]
Second: O=C(Nc1ccc(Cl)cc1C(=O)O)c1ccccc1Cl [CBK000171]
The viability at 28.5 h, 10 µM of the first is lower: 88.6% for the first, 91.4% for the second.

First: Cc1cc(NC(=O)c2ccccc2O)n(C)n1 [CBK000190]
Second: Cn1cc(C(=O)O)c(NC(=O)c2ccccc2Cl)n1 [CBK000353]
The viability at 28.5 h, 10 µM of the first is higher: 107% for the first, 95.8% for the second.

Going from `O=C(Nc1ccc2[nH]ncc2c1)c1ccccc1Cl` [CBK000191] to `O=C(NC1CCCC1)c1ccccc1Cl` [CBK001992], the viability at 28.5 h, 10 µM rises from 87.8% to 98.3%.

Going from `CC(C)(C)OC(=O)n1cnc(CC#N)c1` [CBK000202] to `CC(C)(C)OC(=O)N1CCN(c2cc(N)ncn2)CC1` [CBK001963], the viability at 28.5 h, 10 µM rises from 83.1% to 101%.

Compared with `CCCNc1nc(O)cc(C(F)(F)F)n1` [CBK000214], `OCCNc1nc(O)cc(C(F)(F)F)n1` [CBK001804] is higher in viability at 28.5 h, 10 µM: 95.8% for the first, 99.5% for the second.

Going from `Cc1nn(C)c(Oc2ccccc2OCc2ccccc2)c1[N+](=O)[O-]` [CBK000281] to `COc1ccc(CN2C(=O)CC(c3ccccc3)C2=O)cc1` (stereo not shown) [CBK002055], the viability at 28.5 h, 10 µM falls from 102% to 99.4%.

First: COc1ccc(S(=O)(=O)n2ccc3cc(N4CCN(C)CC4)ccc32)cc1OC [CBK000286C]
Second: O=S(=O)(c1ccc(-c2ccccc2)cc1)n1ccc2cc(N3CCN(Cc4ccccc4)CC3)ccc21 [CBK001388C]
The viability at 28.5 h, 10 µM of the first is lower: 79.6% for the first, 115% for the second.

Compared with `Cc1nn(C)c(Oc2cccc(C(F)(F)F)c2)c1C(=O)O` [CBK000324], `Cc1cc(OC(F)(F)F)ccc1S(=O)(=O)Nc1nc(CC(=O)O)cs1` [CBK000575] is lower in viability at 28.5 h, 10 µM: 102% for the first, 87.8% for the second.

First: COc1cccc2c3c([nH]c12)CCCC3 [CBK000331]
Second: COc1ccccc1NS(=O)(=O)c1ccc(N2CCN3CCCC3C2)c(N)c1 (stereo not shown) [CBK001266]
The viability at 28.5 h, 10 µM of the first is higher: 95.8% for the first, 92.6% for the second.

First: O[C@H](CNCc1ccccc1)COc1cccc2c1C1CCC2CC1 [CBK000370]
Second: N[C@H]1CC[C@H](N(CCc2ccccc2)C(=O)N[C@@H]2C[C@H]2c2ccccc2)CC1 [CBK000474C]
The viability at 28.5 h, 10 µM of the first is lower: 92.6% for the first, 110% for the second.

First: CC(=O)Nc1ccc(S(=O)(=O)Nc2ccnc(N3CCN4CCCC4C3)n2)cc1 (stereo not shown) [CBK000380C]
Second: Cc1ccc(S(=O)(=O)N(C)c2ccnc(N3CCN(C)CC3)n2)cc1 [CBK000671]
The viability at 28.5 h, 10 µM of the first is lower: 91.1% for the first, 99.4% for the second.

Compared with `CC(C)(C)OC(=O)c1cc(C(=O)O)ccc1O` [CBK000394], `CCCCCNC(=O)C(Cc1ccc(O)c(C(=O)OCc2ccccc2)c1)NC(=O)OC(C)(C)C` (stereo not shown) [CBK001708] is higher in viability at 28.5 h, 10 µM: 90% for the first, 96.2% for the second.

Compared with `O=C1Nc2ccc(-c3ccsc3)cc2C1(O)O` [CBK000421], `COc1ccc(-c2csc(NS(=O)(=O)c3c(C)cc(Cl)cc3Cl)n2)cc1` [CBK000814] is higher in viability at 28.5 h, 10 µM: 84.5% for the first, 104% for the second.

Compared with `CCCN(C(C)=O)c1nc(O)cc(C(F)(F)F)n1` [CBK000427], `COc1ccc(CSc2nc(O)cc(C(F)(F)F)n2)cc1` [CBK001217] is lower in viability at 28.5 h, 10 µM: 85.5% for the first, 85% for the second.

Compared with `COc1ccc(CNC(=O)N(CCc2ccccc2)CC(C)(C)CN)cc1` [CBK000463C], `CC(C)(CN)CN(Cc1cccc2ccccc12)C(=O)NC1C[C@H]1c1ccccc1` (stereo partly shown) [CBK000490C] is lower in viability at 28.5 h, 10 µM: 119% for the first, 94.7% for the second.

Compared with `NC1CCC(N(CCc2ccccc2)C(=O)Nc2ccc3c(c2)OCO3)CC1` (stereo not shown) [CBK000480C], `CCC(CN(C(=O)C(N)CCCCN)c1ccc2c(c1)OCO2)c1ccccc1` (stereo not shown) [CBK001083T] is higher in viability at 28.5 h, 10 µM: 83.1% for the first, 96.4% for the second.

Going from `COc1cccc(OCCO)c1` [CBK000514] to `COc1ccccc1OCCO` [CBK000949], the viability at 28.5 h, 10 µM rises from 93.1% to 98.3%.

Compared with `Cc1cc(Cl)cc(Cl)c1S(=O)(=O)Nc1nc(CC(=O)O)cs1` [CBK000573], `CCOC(=O)Cc1csc(NS(=O)(=O)c2cc(Cl)c(Cl)s2)n1` [CBK000847] is higher in viability at 28.5 h, 10 µM: 92% for the first, 98% for the second.

Compared with `COc1cc2c(cc1OC)CN(C(=O)N(CCN)CCC(C)c1ccccc1)CC2` (stereo not shown) [CBK000612C], `CC(CCN(CCN)C(=O)N1CCC(Cn2cncn2)(C2CCCCC2)CC1)c1ccccc1` (stereo not shown) [CBK002130C] is higher in viability at 28.5 h, 10 µM: 80.9% for the first, 110% for the second.

Compared with `OCCOc1ccc(Cl)c2cccnc12` [CBK000620], `OCCOc1ncnc2ccccc12` [CBK001412] is higher in viability at 28.5 h, 10 µM: 78.1% for the first, 107% for the second.

Going from `O=[N+]([O-])c1ccc(OCCO)cc1` [CBK000628] to `Cc1ccc(OCCO)cn1` [CBK001786], the viability at 28.5 h, 10 µM rises from 84.8% to 91%.

Compared with `NC(=O)c1ccccc1OCCO` [CBK000640], `OCCOc1ccccc1-c1cc[nH]n1` [CBK001973] is higher in viability at 28.5 h, 10 µM: 87.8% for the first, 104% for the second.

Going from `CN(C)CCOc1ncccc1OCCO` [CBK000655F] to `CN(C)Cc1ncccc1OCCO` [CBK001411C], the viability at 28.5 h, 10 µM rises from 98.2% to 111%.

First: N=C(N)NCC(=O)N(CCCc1cc(C(F)(F)F)cc(C(F)(F)F)c1)c1ccc2c(c1)OCO2 [CBK000702T]
Second: N=C(N)NCC(=O)N(CCc1cc(C(F)(F)F)cc(C(F)(F)F)c1)c1cccc2ccccc12 [CBK001122T]
The viability at 28.5 h, 10 µM of the first is lower: 80.1% for the first, 105% for the second.

Compared with `O=C(c1ccccc1)c1ccc(OCCO)cc1` [CBK000725], `CC(=O)N1CCN(c2ccc(OCCO)cc2)CC1` [CBK001978] is lower in viability at 28.5 h, 10 µM: 94% for the first, 90.8% for the second.

Compared with `Cc1n[nH]c(=O)c2noc(C)c12` [CBK000857], `Cc1n[nH]c(=O)c2c(C)noc12` [CBK001281] is lower in viability at 28.5 h, 10 µM: 108% for the first, 101% for the second.

Compared with `Cc1cc(Cl)cc(Cl)c1S(=O)(=O)Nc1nc2c(s1)CN(C(=O)N1CCOCC1)CC2` [CBK000931], `Cc1c(Cl)cccc1S(=O)(=O)Nc1nc(-c2cccc([N+](=O)[O-])c2)cs1` [CBK000994] is higher in viability at 28.5 h, 10 µM: 92.6% for the first, 107% for the second.

Compared with `COc1ccccc1N(CCCc1cc(C(F)(F)F)cc(C(F)(F)F)c1)C(=O)C(N)C(C)C` (stereo not shown) [CBK001004T], `CCCc1cc(C(=O)NCCCN)cc(CCC)c1OCc1ccccc1` [CBK001736C] is higher in viability at 28.5 h, 10 µM: 98.5% for the first, 114% for the second.

First: CCc1csc(C(=Cc2cccs2)C(N)=O)n1 [CBK001007]
Second: CC(C)(C)c1csc(C(=Cc2ccc(C#N)cc2)C(N)=O)n1 [CBK001154]
The viability at 28.5 h, 10 µM of the first is higher: 90.2% for the first, 88.7% for the second.

Going from `COc1ccc(Cl)cc1NC(=O)CC(C)(C)CC(=O)O` [CBK001236] to `COc1ccc(C)cc1OCCO` [CBK001975], the viability at 28.5 h, 10 µM rises from 90.4% to 104%.

First: Cc1noc(C)c1S(=O)(=O)Nc1csc(C(F)(F)F)c1-c1ccccc1 [CBK001237]
Second: COC(=O)c1oc(-c2ccc(OC)cc2)c(-c2ccc(OC)cc2)c1C(N)=O [CBK001957]
The viability at 28.5 h, 10 µM of the first is lower: 91% for the first, 98.7% for the second.

Going from `COc1cccc2cc([C@H]3CN(C(=O)C(C)(C)N)C[C@@H]3C(=O)N3CCC4(CC3)CN(S(C)(=O)=O)c3ccccc34)oc12` [CBK001347C] to `CS(=O)(=O)N1CC2(CCN(C(=O)N(CCN)CCc3ccc(Cl)cc3)CC2)c2ccccc21` [CBK001687C], the viability at 28.5 h, 10 µM falls from 117% to 111%.

First: Cc1ccc(OCCn2ccnc(N3CCNCC3)c2=O)c([N+](=O)[O-])n1 [CBK001381C]
Second: CC(C)(C)OC(=O)N1CCN(c2nccnc2OCCO)CC1 [CBK001869]
The viability at 28.5 h, 10 µM of the first is lower: 88.1% for the first, 119% for the second.

Going from `CCOC(=O)[C@H]1CN(C(=O)C(C)(C)NC(=O)OC(C)(C)C)C[C@@H]1c1cc2cc(C)ccc2o1` [CBK001599] to `Cc1ccc2oc([C@H]3CN(C(=O)C(C)(C)NC(=O)OC(C)(C)C)C[C@@H]3C(=O)O)cc2c1` [CBK001600], the viability at 28.5 h, 10 µM falls from 91.1% to 86.1%.

Compared with `CCOC(=O)C1CN(C(=O)N(CCN)Cc2ccc(Cl)cc2)CC1c1ccccc1` (stereo not shown) [CBK001682C], `CNC(=O)c1oc(-c2ccc(OC)cc2)c(-c2ccc(OC)cc2)c1C(=O)NC` [CBK001956] is lower in viability at 28.5 h, 10 µM: 97.8% for the first, 90.9% for the second.

Going from `c1cncc(CNCc2ccoc2)c1` [CBK001744C] to `OC/C=C/c1cnc2ccccc2c1` [CBK001749], the viability at 28.5 h, 10 µM rises from 88.1% to 119%.

First: OCCOc1ccccc1N1CCOCC1 [CBK001767C]
Second: CC(C)(C)CCNCCN1CCOCC1 [CBK001895]
The viability at 28.5 h, 10 µM of the first is higher: 116% for the first, 92.2% for the second.

Going from `COC1C(O)=CC(=O)OC1(CCc1ccco1)CCc1ccco1` (stereo not shown) [CBK001858] to `COc1ccc(-n2cnnn2)cc1` [CBK001946], the viability at 28.5 h, 10 µM rises from 86.7% to 99%.

First: Cc1ccc(S(=O)(=O)NC(=O)N2CCCC2)cc1 [CBK001984]
Second: O=C(NC1CCCC1)c1ccc(Cl)cc1Cl [CBK002108]
The viability at 28.5 h, 10 µM of the first is lower: 87.3% for the first, 93.7% for the second.

same assay, conditions: human, hela cells, % viability, bulk resorufin, single well

Going from `Clc1cccc(N2CCNCC2)n1` [CBK001379] to `CCOC(=O)C1(c2ccccc2)CCN(C(=O)N(CCN)CCC(C)c2ccccc2)CC1` (stereo not shown) [CBK002129C], the viability at 28.5 h, 10 µM falls from 95.3% to 82.6%.
